Our source for the TGI and GI50 values is PubChem BioAssay (NCI).

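Method: 48-hour compound exposure of cells in 96-well plates, five concentrations, linear interpolation of endpoints. At the GI50, growth is halved. The concentration for full growth arrest is given as TGI.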

What all share (assay): inhibition of tumour cell growth, NCI panel, 48 h
Assay [1] deals with UACC-257 melanoma.
The test system of assay [2] is NCI-H23 lung.
Assay [3] relates to BT-549 breast.
Assay [4] relates to OVCAR-8 ovarian.
For assay [5], the system named is MDA-MB-231 breast.
The test system of assay [6] is EKVX NSCLC.
Assay [7] has as its system M14 melanoma.
Assay [8] relates to 786-0 renal.
For assay [9], the system named is RPMI-8226 leukemia.
Assay [10] has as its system HCT-15 colon.

For the molecule `Cc1cc(Cl)nc2nc(Cl)c(N)cc12`, the TGI in [1] worked out at 3.55 µM; in assay [2], 23.4 µM; in assay [3], 28.4 µM; in assay [4], 8.55 µM; in assay [5], 11.5 µM; in assay [6], 10.5 µM. The TGI came out at 25.6 µM in assay [7], 10.5 µM in assay [8], 5.74 µM in assay [9] and 4.6 µM in [10].
`CC(O)C1(CNc2cc(Cl)nc(N)n2)CCCCC1` (stereo not drawn): the TGI in assay [1], in [2], in assay [3], in assay [4], in assay [5] and in assay [6] was above 100 µM throughout. Also, the TGI in [7], in [8], in assay [9] and in [10] was above 100 µM throughout.
Turning to `CC1CN=C(NS(=O)(=O)c2cc(C(=O)Nc3ccc(Cl)cc3)c(Cl)cc2S)NN1` (stereo not drawn), the TGI was above 100 µM in assay [1]; above 100 µM in assay [2]; above 100 µM in assay [3]; 59.3 µM in assay [4]; above 100 µM in assay [5]; above 100 µM in assay [6]. Further, the TGI in [7] was 69.5 µM; in assay [8] it was above 100 µM; in assay [9] it was 70.8 µM; in assay [10], above 100 µM.
For `CCNC(=O)c1cc(Cl)ccc1NC(=O)C12CC3CC(CC(C3)C1)C2`, the TGI in [1] was above 100 µM; in [2] it was above 100 µM; in assay [3] it was above 100 µM; in assay [4] it was above 100 µM; in assay [5], above 100 µM; in assay [6], 60.6 µM. Besides, the TGI in assay [7] is above 100 µM; in [8], 61 µM; in assay [9] it was 86.7 µM; in [10], above 100 µM.
Take `N#CC1(C#N)NC(c2ccccc2)C(C#N)(C#N)NC1c1ccccc1` (stereo not drawn): the TGI in assay [1], in assay [2], in assay [3], in assay [4], in assay [5] and in assay [6] was above 100 µM in each case. The TGI in [7], in [8], in assay [9] and in [10] was above 100 µM in each case.
On to `S=C1NC2=C(COc3ccccc32)C(c2ccc(Cl)cc2)N1` (stereo not drawn), for which the TGI came to 41.6 µM in assay [1]; 45.9 µM in assay [2]; 41.5 µM in assay [3]; 41.7 µM in assay [4]; 34 µM in assay [5]; 34.2 µM in assay [6]. In addition, the figures for the TGI in [7], in [8] and in [9] were 34.5 µM, 34.5 µM and 22.4 µM, respectively.
Take `CCOC(=O)c1cc(-n2nnc3ccccc32)cn1C`: the TGI in assay [1], in assay [2], in [3], in assay [4], in [5] and in assay [6] was above 10 µM in each case. The TGI in assay [7], in assay [8], in [9] and in [10] was above 10 µM in each case.
In the case of `COC(=O)C1CCN(C(=O)OC(C)(C)C)CC1`, the TGI in assay [1], in assay [2], in [3], in [4], in assay [5] and in assay [6] was above 100 µM throughout. Further, the TGI in [7], in [8], in assay [9] and in [10] was above 100 µM each time.
Turning to `C=CC(O)(CBr)CCC(Br)C(=C)C` (stereo not drawn), the TGI in [1], in assay [2], in assay [3], in [4], in assay [5] and in assay [6] was above 10 µM each time. The TGI in assay [7], in assay [8], in assay [9] and in assay [10] was above 10 µM throughout.
Take `CC1(c2sccc2Cl)CC(c2sccc2Cl)=C(C#N)C(=C(C#N)C#N)N1` (stereo not drawn): the TGI amounted to 39.2 µM in [1]; 35.9 µM in assay [2]; 32.3 µM in assay [3]; 39 µM in assay [4]; 42.9 µM in assay [5]; 34 µM in [6]. For the same molecule, the TGI is 42.7 µM in assay [7], 34.5 µM in assay [8], 88 µM in assay [9] and 35 µM in [10].
For the molecule `COC(=O)/C=C\C(C#N)(C#N)N=Cc1cccc(OC)c1`, the TGI in [1] amounted to 29.8 µM; in assay [2], 16.4 µM; in assay [3], 20.4 µM; in assay [4], 10.5 µM; in [5], 29 µM; in [6], 23.8 µM. In addition, the TGI in assay [7] was 10.4 µM; in assay [8], 13.7 µM; in assay [9], above 28 µM; in assay [10], 4.54 µM.
As for `Cc1nc(SCC(=O)Nc2ccc(Cl)cc2)c2sc(=S)n(-c3ccccc3)c2n1`, the TGI in assay [1], in assay [2], in assay [3], in [4], in [5] and in assay [6] was above 10 µM in each case. Moreover, the TGI in [7], in assay [8], in [9] and in assay [10] was above 10 µM throughout.
In the case of `NC(N)=NS(=O)(=O)c1ccc(N/N=C2/CCOC2=O)cc1`, the TGI in assay [1], in [2], in [3], in assay [4], in [5] and in assay [6] was above 100 µM each time. Moreover, the TGI in [7], in assay [8], in [9] and in [10] was above 100 µM in each case.
For the molecule `CCOC(=O)/C=C(\C(=O)OCC)n1ccc(=O)n(Cc2cnnn2CCCCOC(C)=O)c1=O`, the TGI in assay [1] stood at 27.4 µM; in assay [2], 18.5 µM; in assay [3] it was 30.2 µM; in [4] it was 13.9 µM; in assay [5], 38.1 µM; in assay [6], 24.8 µM. Further, the TGI is 38.8 µM in [7], above 37.5 µM in assay [8], above 22.5 µM in [9] and 20.3 µM in assay [10].
In the case of `CSC1NC(c2ccccc2)=C(C#N)C(=O)N1C1OCC(OC(C)=O)C(OC(C)=O)C1OC(C)=O` (stereo not drawn), the TGI in assay [1], in assay [2], in [3], in assay [4], in [5] and in [6] was above 100 µM each time. Moreover, the TGI in assay [7], in assay [8], in assay [9] and in assay [10] was above 100 µM each time.
Regarding `O=[N+]([O-])C(/C=C(\Cl)[N+](=O)[O-])=C1Nc2ccccc2N1`, the TGI in assay [1], in assay [2], in assay [3], in [4], in [5] and in [6] was above 100 µM in each case. Also, the TGI in assay [7], in assay [8], in assay [9] and in assay [10] was above 100 µM each time.
`CCOC(=O)C(NC(=O)c1ccccc1)(Nc1ccc(S(=O)(=O)Nc2ncccn2)cc1)C(F)(F)F` (stereo not drawn): the TGI in [1], in assay [2], in assay [3], in [4], in [5] and in [6] was above 100 µM each time. Besides, the TGI in [7], in [8], in assay [9] and in assay [10] was above 100 µM throughout.
Regarding `CN(C)c1ccc(/C=C/c2ccc(S(N)(=O)=O)cc2)cc1`, the TGI was above 100 µM in assay [1]; 44 µM in [2]; 8.62 µM in [3]; 27.5 µM in [4]; 34.3 µM in assay [5]; 52.5 µM in [6]. The TGI in assay [7] is 35.9 µM; in [8] it was 35.4 µM; in [9], above 100 µM; in assay [10], 74.1 µM. For the same molecule, the GI50 in assay [2] is 14.2 µM; in assay [3], 2.14 µM; in assay [4], 4.95 µM; in assay [9] it was 11.6 µM; in assay [10] it was 17.1 µM.
Regarding `COC(=O)C1Cc2ccc(O)c(O)c2CN1` (stereo not drawn), the TGI is 29.2 µM in [1]; 31.8 µM in assay [2]; 32.2 µM in assay [3]; 43.3 µM in assay [5]; above 100 µM in assay [6]; 29.7 µM in assay [7]. Also, the TGI in assay [8] was determined as 31.8 µM; in assay [9] it was 68 µM; in [10], 87.1 µM.
On to `COC1CCON1C(=O)c1ccccc1` (stereo not drawn), for which the TGI in assay [1], in [2], in assay [3], in assay [4], in assay [5] and in assay [6] was above 10 µM each time. The TGI in assay [7], in assay [8], in assay [9] and in assay [10] was above 10 µM throughout.
With `Cc1ccc(C2(c3ccc(Cl)cc3)c3ccccc3C3=NCCN32)cc1` (stereo not drawn), the TGI in assay [1] stood at 20.7 µM; in assay [2], 32 µM; in assay [3], 25.9 µM; in assay [4] it was 29.4 µM; in assay [5], 19.4 µM; in assay [6], 28.9 µM. The TGI worked out at 16.2 µM in assay [7], 26.9 µM in assay [8], 28.9 µM in assay [9] and 24 µM in [10].
`Oc1ccc([C@H]2c3c(O)cc(O)cc3C3c4c(cc(O)cc4[C@@H]2[C@H]2c4cc(O)cc5c4C(c4cc(O)cc(O)c4[C@@H]2c2ccc(O)cc2)[C@@H](c2ccc(O)cc2)O5)O[C@@H]3c2ccc(O)cc2)cc1` (stereo partly drawn): the TGI in assay [1], in assay [2], in assay [3], in assay [4], in assay [5] and in assay [6] was above 100 µM throughout. Also, the TGI in [7], in assay [8], in assay [9] and in assay [10] was above 100 µM each time.
Turning to `Cc1cc(S(=O)(=O)N2CCNNC2=O)c(S)cc1Cl`, the TGI in [1] is above 100 µM; in assay [3], 64.2 µM; in assay [4], above 100 µM; in assay [5], 61 µM; in assay [6], above 100 µM; in assay [7], above 100 µM. The values for the TGI in assay [8], in assay [9] and in [10] were 43 µM, above 100 µM and above 100 µM, respectively.
Consider `COc1ccc2c3c(Nc4cccc(/C(C)=N\O)c4)[nH]c4ccccc4c-3c(N=O)c2c1`, for which the GI50 in assay [1] was 41 µM; in assay [2], 0.752 µM; in assay [3] it was 47 µM; in assay [4] it was 25.8 µM; in assay [5] it was 18.9 µM; in assay [6], 20.5 µM. Also, the results for the GI50 in assay [7], in assay [9] and in [10] were 29.9 µM, 25.5 µM and 18 µM, respectively. Further, the TGI in [1] was above 100 µM; in assay [2], 27.1 µM; in assay [3], above 100 µM; in [4], above 100 µM; in assay [5], 44.5 µM; in [6] it was 93.2 µM. For the same molecule, the TGI in [7] is above 100 µM; in [9], above 100 µM; in [10], 39.6 µM.
For the molecule `N#CC(N=Nc1ccccc1C(=O)O)C(N)=O` (stereo not drawn), the TGI in [1], in assay [2], in assay [3], in [5], in assay [6] and in assay [7] was above 100 µM throughout. Further, the TGI in assay [8], in assay [9] and in assay [10] was above 100 µM in each case.
For the molecule `CC(=O)Nc1ccc2nc(-c3ccccn3)c(-c3ccccn3)nc2c1`, the TGI in assay [1], in assay [3], in assay [4], in assay [5], in assay [6] and in assay [7] was above 100 µM throughout. Besides, the TGI in assay [8], in assay [9] and in assay [10] was above 100 µM in each case.
